Where a SMILES comes first, the peptide text is derived from it. The star is where a group is joined. Cbz = O=C(OCc1ccccc1)*; CH2F = FC*

Type in all cases: cell-based, mouse
One test deals with 4T1.2 cells. The experiment in a line: Cell viability (acid phosphatase assay) of cancer cells treated with Ivermectin. The following applies: cells treated with Ivermectin (32 μM, 4 h in figure legends) in the presence of the agent. The protocol:
(§1) Cell viability. Cancer cells were plated on 96 well flat-bottom plates and allowed to attach overnight. Cells were then pre-incubated with drugs for 1 h and treated with Ivermectin for 4 h. In the case of 24 h and 48 h incubations the cells, Ivermectin and drugs were plated together. All treatments and controls were done in triplicate wells and results were validated in at least two independent experiments. Following treatment the plates were washed once with PBS and cell viability was measured using the acid phosphatase assay. Briefly, cells were incubated for 1h at 37° C. in 100 μL assay buffer (0.16 M sodium acetate, 0.1% Triton-X-100, supplemented with 4-Nitrophenyl phosphate disodium salt hexahydrate, Sigma Aldrich, at 0.00263 g/ml). Reaction was stopped using 10 μL of 1N sodium hydroxide. Absorption at 405 nm was measured within 10 min using a multi-well plate reader. Mode of cell death and viability of cells in suspension was evaluated using flow cytometry. Briefly, cancer cells were pre-incubated with drugs for 30 min to 1 h, as indicated, treated with Ivermectin for 4 h in 5 ml FACS tubes , washed twice in PBS and stained with PE-conjugated Annexin V and 7AAD (1 μl per 100 μl/200,000 cancer cells) for 15 min.

The test system of a further test is 4T1.2 shRNA (NT). Nature of the test: Synergy between Ivermectin and ATP (CI), non-targeting control cells. The protocol: (§2) FIGS. 5A-5E. CaMKII-independent P2X7-mediated killing. FIG. 5A: qPCR showing the extent of gene knockdown in 4T1.2 cells transfected with shRNA targeting the P2X7 receptor versus non-targeting (NT) control (left panel). […] One million wt, shRNA(NT) and shRNA(P2X7) 4T1.2 cells were plated and incubated for 48 h before evaluation of cell numbers and viability. FIG. 5B: P2X7 knockdown cells are more resistant to ATP and the ATP/IVM combo. 4T1.2 cells were treated for 24 h with 1-3 mM ATP, 6-10 μM Ivermectin, or combinations of ATP and Ivermectin. P2X7 knockdown suppresses the synergy between Ivermectin and high dose ATP, as shown by calculation of combination index (CI) values, see Table 2. FIG. 5C: P2X7 knockdown cells are resistant to ATP/Ivermectin induced membrane permeabilization (Asterisk (*) indicates p<0.05). […] FIG. 5E: Comparison of the protective effects of P2X7, CaMKII, and NADPH oxidases inhibition in short-term (4 h, 32 μM IVM) and long-term (24 h, 12 μM IVM) exposure of 4T1.2 cells to Ivermectin. Asterisk (*) indicates p<0.05 relative to Ivermectin alone controls.
as §1
(§3) Generation of P2X7 receptor knockdown 4T1.2 cells. 4T1.2 cells were transduced using Sigma mission shRNA lentiviral transduction particle with four P2X7 shRNA (NM_011027/TRCN0000068568, NM_011027/TRCN0000068570, NM_011027/TRCN0000068571, NM_011027/TRCN0000068572) or Non-Target control (SHC002V). The viral particles were added to growing cells in the presence of […] POLYBRENE® (Sigma, St Louis, Mo.), and incubated overnight at 37° C. Puromycin selection (2000 ng/ml) was done from third day onwards to select for stably transformed cells.

The subject of a further test is 4T1.2 shRNA (P2X7). The experiment in a line: Synergy between Ivermectin and ATP (CI), P2X7 knockdown cells. The procedure:
as §2, §1, §3

Test [1] deals with murine and human TNBC cells. The experiment in a line: Reactive oxygen species. The protocol: Reactive oxygen and nitrogen species. Cancer cells in suspension were washed with PBS and loaded with 50 μM H2DCFDA (Molecular Probes, Life Technologies, D399) or 5 μM DAF-2 (Cayman Chemical, Catalog #85165) for 30 min at room temperature in the dark. Cells were washed twice with PBS and treated with various doses of Ivermectin in R10 medium. Cells were incubated for 1h in 5 ml FACS tubes at 37° C. and 5% CO2, and immediately analyzed by flow cytometry. Generation of intracellular ROS and NO results in corresponding increases in the GFP fluorescence of the H2DCFDA and DAF-2 probes, respectively.

Another test deals with 4T1.2 cancer cells. The experiment in a line: Synergy between Ivermectin and ROS (CompuSyn CI). The following applies: 4T1.2, 24 h/48 h. The protocol:
FIGS. 2A-2C. Role of NADPH oxidases-generated ROS. […] 4T1.2 cells were labeled with a ROS detection probe and treated for 1 h with 32 μM Ivermectin in the presence of 1 mM EDTA, 5mM NAC, 5 μM DPI, 2500 μunits/ml Apyrase, 3 mM ATP, and 10 μM KN-62. […] Triangles (▴) indicate significant antagonism CI>1.0. […] 4T1.2 cancer cells were irradiated (10-20 kRad) or treated with H2O2 (10-1000 μM), PTX (0.1-1 μM), or DOX (1-4 μM) and incubated with Ivermectin for 24 h/48 h. Circles (●) indicate significant synergy CI<1.0, see Table 1. Asterisk (*) indicates p<0.05 relative to untreated or Ivermectin alone controls, respectively.
as §1, with “All treatments and controls were done in triplicate wells and results were validated in at least two independent experiments.” left out

As for `CCCCC1(C2CCCC2)Cc2cc(OCCCC(=O)O)c(Cl)c(Cl)c2C1=O` (centres unmarked) [DCPIB], the “effect on Ivermectin-induced cell death” value in the test with 4T1.2 cells was “exacerbates Ivermectin killing”.

Take Apyrase: the “effect on Ivermectin-induced cell death” value with 4T1.2 cells is given as “Ivermectin killing was initially enhanced”.

For `Nc1ncnc2c1ncn2[C@@H]1O[C@H](COP(=O)(O)OP(=O)(O)OP(=O)(O)O)[C@@H](O)[C@H]1O` [ATP, adenosine triphosphate], the CI values in the test with 4T1.2 shRNA (NT) (ATP 1 + I 6, 24 h) is listed as 1.18; in the test on 4T1.2 shRNA (NT) (ATP 1 + I 8, 24 h), 1.01; with 4T1.2 shRNA (NT) (ATP 1 + I 10, 24 h), 1.24; in the test on 4T1.2 shRNA (NT) (ATP 2 + I 6, 24 h), 1.17; in the test on 4T1.2 shRNA (NT) (ATP 2 + I 8, 24 h) it was 1.01; in the test with 4T1.2 shRNA (NT) (ATP 2 + I 10, 24 h), 1.10. In addition, the CI values in the test on 4T1.2 shRNA (NT) (ATP 3 + I 6, 24 h) came to 0.67; with 4T1.2 shRNA (NT) (ATP 3 + I 8, 24 h), 0.64; in the test with 4T1.2 shRNA (NT) (ATP 3 + I 10, 24 h), 0.63; with 4T1.2 shRNA (P2X7) (ATP 1 + I 6, 24 h) it was 1.49; in the test with 4T1.2 shRNA (P2X7) (ATP 1 + I 8, 24 h), 1.39; in the test on 4T1.2 shRNA (P2X7) (ATP 1 + I 10, 24 h), 1.35. In addition, the CI values was found to be 1.18 in the test with 4T1.2 shRNA (P2X7) (ATP 2 + I 6, 24 h); 1.03 with 4T1.2 shRNA (P2X7) (ATP 2 + I 8, 24 h); 1.11 in the test with 4T1.2 shRNA (P2X7) (ATP 2 + I 10, 24 h); 0.96 with 4T1.2 shRNA (P2X7) (ATP 3 + I 6, 24 h); 0.91 in the test on 4T1.2 shRNA (P2X7) (ATP 3 + I 8, 24 h); 0.86 in the test on 4T1.2 shRNA (P2X7) (ATP 3 + I 10, 24 h).

`Cc1nc(N=Nc2ccc(S(=O)(=O)O)cc2S(=O)(=O)O)c(COP(=O)(O)O)c(C=O)c1O` [PPADs]: in the test with 4T1.2 cells, the “effect on Ivermectin-induced cell death” value is given as “did not observe any protection”.

Turning to `Cc1ccc(C(=O)Nc2ccc(S(=O)(=O)O)c3cc(S(=O)(=O)O)cc(S(=O)(=O)O)c23)cc1NC(=O)c1cccc(NC(=O)Nc2cccc(C(=O)Nc3cc(C(=O)Nc4ccc(S(=O)(=O)O)c5cc(S(=O)(=O)O)cc(S(=O)(=O)O)c45)ccc3C)c2)c1` [Suramin], the “effect on Ivermectin-induced cell death” value with 4T1.2 cells was “Ivermectin killing was initially enhanced”.

As for `O=C(O)CN(CCN(CC(=O)O)CC(=O)O)CC(=O)O` [EDTA], the “effect on Ivermectin-induced cell death” value in the test on 4T1.2 cells is listed as “cell death can be suppressed”.

Consider `Nc1ncnc2c1ncn2[C@@H](C=O)O[C@@H](C=O)COP(=O)(O)OP(=O)(O)OP(=O)(O)O` [OxATP], for which, in the test with 4T1.2 cells, the “effect on Ivermectin-induced cell death” value is “did not observe any protection”.

As for `Nc1c(S(=O)(=O)[O-])cc(Nc2ccc(Cl)cc2)c2c1C(=O)c1ccccc1C2=O.[Na+]` [PSB 069], the “effect on Ivermectin-induced cell death” value in the test with 4T1.2 cells is “Ivermectin-induced cytotoxicity was suppressed”.

On to `c1ccc2c(c1)[I+]c1ccccc1-2` [DPI, Diphenyleneiodonium], for which the “effect on Ivermectin-induced cell death” value in the test with 4T1.2 cells is on record as “transiently block Ivermectin-induced killing”.

In the case of `COC(=O)C[C@H](NC(=O)[C@H](C)NC(=O)[C@@H](NC(=O)OCc1ccccc1)C(C)C)C(=O)CF` [Z-vad-fmk] (Cbz-Val-Ala-Asp(OMe)-CH2F), in the test on 4T1.2 cells, the “effect on Ivermectin-induced cell death” value was “inhibited cell death very effectively”.

With `CN1C(=O)C(Cc2c[nH]c3ccccc23)NC1=S` (centres unmarked) [Necrostatin], the “effect on Ivermectin-induced cell death” value in the test with 4T1.2 cells is listed as “demonstrated some protection”.

For `C[C@H]1O[C@@H](O[C@H]2[C@@H](O)C[C@H](O[C@H]3[C@@H](O)C[C@H](O[C@H]4CC[C@@]5(C)[C@H](CC[C@@H]6[C@@H]5C[C@@H](O)[C@]5(C)[C@@H](C7=CC(=O)OC7)CC[C@]65O)C4)O[C@@H]3C)O[C@@H]2C)C[C@H](O)[C@@H]1O` [Digoxin], the “effect on Ivermectin-induced cell death” value in the test on 4T1.2 cells is “demonstrated some protection”.

For `N[C@@H](CCC(=O)N[C@@H](CS)C(=O)NCC(=O)O)C(=O)O` [GSH], the “effect on Ivermectin-induced cell death” value with 4T1.2 cells is reported as “completely failed to prevent, or even delay, Ivermectin-induced killing”. In test [1], the “blockade of Ivermectin-induced ROS by ROS scavengers” value is “less effective against Ivermectin-induced ROS”.

Take `CCCN(CCC)S(=O)(=O)c1ccc(C(=O)O)cc1` [Probenecid]: in the test with 4T1.2 cells, the “effect on Ivermectin-induced cell death” value was “enhanced Ivermectin cytotoxicity”.

`CCO[C@@H]1OC(=O)C[C@@H]1NC(=O)[C@@H]1CCCN1C(=O)[C@@H](NC(=O)c1ccc(N)c(Cl)c1)C(C)(C)C` [VX-765]: in the test with 4T1.2 cells, the “effect on Ivermectin-induced cell death” value is “demonstrated some protection”.

Consider `CC(=O)O[C@H]1C(=O)[C@@]2(C)[C@H]([C@H](OC(=O)c3ccccc3)[C@]3(O)C[C@H](OC(=O)[C@H](O)[C@@H](NC(=O)c4ccccc4)c4ccccc4)C(C)=C1C3(C)C)[C@]1(OC(C)=O)CO[C@@H]1C[C@@H]2O` [PTX, paclitaxel], for which the “CompuSyn CI values” is reported as “.35” in the test on 4T1.2 cancer cells (PTX 0.1 + Ivermectin 1), “.52” in the test with 4T1.2 cancer cells (PTX 0.1 + Ivermectin 2), “.30” in the test with 4T1.2 cancer cells (PTX 1 + Ivermectin 1) and “.51” in the test with 4T1.2 cancer cells (PTX 1 + Ivermectin 2).

Turning to `COc1cccc2c1C(=O)c1c(O)c3c(c(O)c1C2=O)C[C@@](O)(C(=O)CO)C[C@@H]3O[C@H]1C[C@H](N)[C@H](O)[C@H](C)O1` [DOX, doxorubicin], the “CompuSyn CI values” is “.43” in the test on 4T1.2 cancer cells (DOX 1 + Ivermectin 2), “.61” in the test on 4T1.2 cancer cells (DOX 1 + Ivermectin 4), “.42” in the test with 4T1.2 cancer cells (DOX 2 + Ivermectin 2) and “.56” in the test on 4T1.2 cancer cells (DOX 2 + Ivermectin 4).

As to `CC(=O)N[C@@H](CS)C(=O)O` [NAC], in the test with 4T1.2 cells, the “effect on Ivermectin-induced cell death” value is listed as “completely failed to prevent, or even delay, Ivermectin-induced killing”. In addition, in test [1], the “blockade of Ivermectin-induced ROS by ROS scavengers” value is “less effective against Ivermectin-induced ROS”.

Turning to `OO` [H2O2], the “CompuSyn CI values” with 4T1.2 cancer cells (H2O2 100 + Ivermectin 8) was “.46”; in the test with 4T1.2 cancer cells (H2O2 100 + Ivermectin 16), “.39”; with 4T1.2 cancer cells (H2O2 1000 + Ivermectin 8), “.24”; in the test on 4T1.2 cancer cells (H2O2 1000 + Ivermectin 16) it was “.20”.

For the origin of these results see patent US11058700B2, “Macrocyclic lactones and uses thereof as modulators of purinergic receptors” (City of Hope, priority 2015, dated 2021).
